Experimental data published in patent US11498930B2 (BLUERAY THERAPEUTICS (SHANGHAI) CO., LTD., priority 2018, dated 2022).
pIC50: −log10 of the molar value.

Target: SHP2^E76A protein (Homo sapiens (Human), UniProt Q06124, E76A)
Assay: SHP2 enzyme activity inhibition experiment
Format: biochemical
Settings: SHP2 enzyme activity, Tables 1.1 and 1.2; read-out: IC50
Protocol: Compound powders were dissolved in DMSO to prepare mother liquor.
During the experiment, the stock solutions of the compounds were subjected to 3-fold gradient dilution with DMSO, and 10 different test concentrations of each compound were set. […] The protein used was the activated protein SHP^2E76A with amino acid mutation at position 76 of the protein, and the substrate used was DiFMUP (Invitrogen, E12020). […] 50 µL of enzyme solution was added to the detection wells, followed by 50 µL of substrate. […] GraphPad Prism 5 was used for nonlinear regression analysis, and the curve of enzyme activity versus compound concentration was fitted by the equation Y=Bottom+(Top-Bottom)/(1+10^((Log IC50−X)*HillSlope)) to calculate the IC50 value of each compound.

Chain of SHP2^E76A protein (Q06124 whole entry E76A): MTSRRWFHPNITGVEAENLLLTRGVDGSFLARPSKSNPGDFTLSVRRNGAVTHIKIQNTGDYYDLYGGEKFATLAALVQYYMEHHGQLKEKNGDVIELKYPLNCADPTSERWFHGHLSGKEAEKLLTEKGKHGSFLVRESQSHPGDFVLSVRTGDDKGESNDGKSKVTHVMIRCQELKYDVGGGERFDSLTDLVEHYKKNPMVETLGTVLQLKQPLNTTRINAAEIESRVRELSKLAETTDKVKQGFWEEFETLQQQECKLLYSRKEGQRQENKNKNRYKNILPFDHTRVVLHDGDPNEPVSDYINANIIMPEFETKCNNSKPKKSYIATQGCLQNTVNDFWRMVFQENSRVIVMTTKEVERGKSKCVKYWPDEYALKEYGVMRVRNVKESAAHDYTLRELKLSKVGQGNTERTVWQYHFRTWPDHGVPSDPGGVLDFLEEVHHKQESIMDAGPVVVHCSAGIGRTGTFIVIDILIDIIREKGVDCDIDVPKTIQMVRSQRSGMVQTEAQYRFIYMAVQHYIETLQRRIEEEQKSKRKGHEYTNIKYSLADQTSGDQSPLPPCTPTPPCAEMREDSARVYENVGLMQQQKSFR

Compared with `C[C@H]1OCC2(CCN(c3ncc(Sc4ccnc(N)c4Cl)c4nncn34)CC2)[C@H]1N`, `Cc1nccc(Sc2cnc(N3CCC4(CC3)CO[C@H](C)[C@H]4N)n3cnnc23)c1Cl` [(3R,4S)-8-(8-((3-chloro-2-methylpyridin-4-yl)thio)-[1,2,4]triazolo[4,3-c]pyrimidin-5-yl)-3-methyl-2-oxa-8-azaspiro[4.5]decan-4-amine] is higher in pIC50: 5.00 to 6.00 for the first, greater than 7.00 for the second.

`C[C@H]1OCC2(CCN(c3ncc(Sc4cccc(Cl)c4Cl)c4nncn34)CC2)[C@H]1N` and `C[C@H]1OCC2(CCN(c3ncc(Sc4cccc(Cl)c4Cl)c4ncnn34)CC2)[C@H]1N` [(3R,4R)-8-(8-((2,3-dichlorophenyl)thio)-[1,2,4]triazolo[1,5-c]pyrimidin-5-yl)-3-methyl-2-oxa-8-azaspiro[4.5]decan-4-amine] fall in the same range of pIC50: 5.00 to 6.00 for the first, 5.00 to 6.00 for the second.

First: C[C@@H]1OCC2(CCN(c3ncc(Sc4cc(N)ncc4Cl)c4nccn34)CC2)[C@@H]1N
Second: C[C@H]1OCC2(CCN(c3ncc(Sc4cccc(Cl)c4Cl)c4ncnn34)CC2)[C@@H]1N [(3R,4S)-8-(8-((2,3-dichlorophenyl)thio)-[1,2,4]triazolo[1,5-c]pyrimidin-5-yl)-3-methyl-2-oxa-8-azaspiro[4.5]decan-4-amine]
The pIC50 of the first is higher: greater than 7.00 for the first, 6.00 to 7.00 for the second.

`N[C@@H]1CCCC12CCN(c1ncc(Sc3cccc4c3C(=O)C(=O)N4)c3nccn13)CC2` and `N[C@@H]1CCCCC12CCN(c1ncc(Sc3cccc(Cl)c3Cl)c3nccn13)CC2` [(R)-3-(8-((2,3-dichlorophenyl)thio)imidazo[1,2-c]pyrimidin-5-yl)-3-azaspiro[5.5]undecan-7-amine] fall in the same range of pIC50: 6.00 to 7.00 for the first, 6.00 to 7.00 for the second.

First: Cc1nc(N)cc(Sc2cnc(N3CCC4(CCC[C@H]4N)CC3)n3ccnc23)c1Cl
Second: CN(C)C(=O)C(=O)Nc1cccc(Sc2cnc(N3CCC4(CCC[C@H]4N)CC3)n3ccnc23)c1Cl
The pIC50 of the first is higher: greater than 7.00 for the first, 6.00 to 7.00 for the second. The first is the more potent here.

`Cc1ncccc1Sc1cnc(N2CCC3(CCC[C@H]3N)CC2)n2ncnc12` and `Nc1ccc(Sc2cnc(N3CCC4(CCC[C@H]4N)CC3)n3ncnc23)cc1` fall in the same range of pIC50: 5.00 to 6.00 for the first, 5.00 to 6.00 for the second.

Compared with `Cc1nccc(Sc2cnc(N3CCC4(CC3)COC[C@H]4N)n3cnnc23)c1Cl`, `NC1CC2(CCN(c3ncc(Sc4cccc(Cl)c4Cl)c4nncn34)CC2)C1` [7-(8-((2,3-dichlorophenyl)thio)-[1,2,4]triazolo[4,3-c]pyrimidin-5-yl)-7-azaspiro[3.5]nonan-2-amine] is lower in pIC50: 6.00 to 7.00 for the first, 5.00 to 6.00 for the second.

`CC1(N)CCN(c2ncc(-c3cccc(Cl)c3Cl)c3nncn23)CC1` [1-(8-(2,3-dichlorophenyl)-[1,2,4]triazolo[4,3-c]pyrimidin-5-yl)-4-methylpiperidin-4-amine] and `N[C@@H]1CCCC12CCN(c1ncc(-c3cccc(Cl)c3Cl)c3nncn13)CC2` [(R)-8-(8-(2,3-dichlorophenyl)-[1,2,4]triazolo[4,3-c]pyrimidin-5-yl)-8-azaspiro[4.5]decan-1-amine] fall in the same range of pIC50: 5.00 to 6.00 for the first, 5.00 to 6.00 for the second.

First: CC1(N)CCN(c2ncc(Sc3cccc(Cl)c3Cl)c3ncnn23)CC1 [1-(8-((2,3-dichlorophenyl)thio)-[1,2,4]triazolo[1,5-c]pyrimidin-5-yl)-4-methylpiperidin-4-amine]
Second: CC1(N)CCN(c2ncc(Sc3ccnc(N)c3Cl)c3nccn23)CC1 [4-((5-(4-amino-4-methylpiperidin-1-yl)imidazo[1,2-c]pyrimidin-8-yl)thio)-3-chloropyridin-2-amine]
The pIC50 of the first is lower: 5.00 to 6.00 for the first, 6.00 to 7.00 for the second. The second is the more potent here.

`NC1CCN(c2ncc(Sc3cccc(Cl)c3Cl)c3nncn23)CC1` [1-(8-((2,3-dichlorophenyl)thio)-[1,2,4]triazolo[4,3-c]pyrimidin-5-yl)piperidin-4-amine] and `NCCC1CCN(c2ncc(Sc3cccc(Cl)c3Cl)c3nncn23)CC1` [2-(1-(8-((2,3-dichlorophenyl)thio)-[1,2,4]triazolo[4,3-c]pyrimidin-5-yl)piperidin-4-yl)ethan-1-amine] fall in the same range of pIC50: 5.00 to 6.00 for the first, 5.00 to 6.00 for the second.

`NC1CCN(c2ncc(Sc3cccc(Cl)c3Cl)c3nccn23)CC1` [1-(8-((2,3-dichlorophenyl)thio)imidazo[1,2-c]pyrimidin-5-yl)piperidin-4-amine] and `N[C@@H]1CCCN(c2ncc(Sc3cccc(Cl)c3Cl)c3nccn23)CC1` [(R)-1-(8-((2,3-dichlorophenyl)thio)imidazo[1,2-c]pyrimidin-5-yl)azepan-4-amine] fall in the same range of pIC50: 6.00 to 7.00 for the first, 6.00 to 7.00 for the second.

`NC1CC2(CCN(c3ncc(Sc4cccc(Cl)c4Cl)c4nccn34)CC2)C1` [7-(8-((2,3-dichlorophenyl)thio)imidazo[1,2-c]pyrimidin-5-yl)-7-azaspiro[3.5]nonan-2-amine] and `CC1(C)COC2(CCN(c3ncc(Sc4cccc(Cl)c4Cl)c4nccn34)CC2)[C@@H]1N` [(R)-8-(8-((2,3-dichlorophenyl)thio)imidazo[1,2-c]pyrimidin-5-yl)-3,3-dimethyl-1-oxa-8-azaspiro[4.5]decan-4-amine] fall in the same range of pIC50: 6.00 to 7.00 for the first, 6.00 to 7.00 for the second.

`Clc1cccc(Sc2cnc(N3CCC4(CCCN4)CC3)n3cnnc23)c1Cl` [8-(8-((2,3-dichlorophenyl)thio)-[1,2,4]triazolo[4,3-c]pyrimidin-5-yl)-1,8-diazaspiro[4.5]decane] and `CN[C@@H]1CCCC12CCN(c1ncc(Sc3cccc(Cl)c3Cl)c3nncn13)CC2` [(R)-8-(8-((2,3-dichlorophenyl)thio)-[1,2,4]triazolo[4,3-c]pyrimidin-5-yl)-N-methyl-8-azaspiro[4.5]decan-1-amine] fall in the same range of pIC50: 5.00 to 6.00 for the first, 5.00 to 6.00 for the second.

`CC1(N)COCC12CCN(c1ncc(Sc3cccc(Cl)c3Cl)c3nncn13)CC2` (stereo not shown) [8-(8-((2,3-dichlorophenyl)thio)-[1,2,4]triazolo[4,3-c]pyrimidin-5-yl)-4-methyl-2-oxa-8-azaspiro[4.5]decan-4-amine] and `N[C@@H]1CCC2CN(c3ncc(Sc4cccc(Cl)c4Cl)c4nncn34)CC21` (stereo partly drawn) [(4R)-2-(8-((2,3-dichlorophenyl)thio)-[1,2,4]triazolo[4,3-c]pyrimidin-5-yl)octahydrocyclopenta[c]pyrrol-4-amine] fall in the same range of pIC50: 5.00 to 6.00 for the first, 5.00 to 6.00 for the second.

Compared with `CC1CN(c2ncc(Sc3cccc(Cl)c3Cl)c3nncn23)CC(C)N1` (stereo not shown) [8-((2,3-dichlorophenyl)thio)-5-(3,5-dimethylpiperazin-1-yl)-[1,2,4]triazolo[4,3-c]pyrimidine], `NCC1CCN(c2ncc(Sc3cccc(Cl)c3Cl)c3nccn23)C1` (stereo not shown) [(1-(8-((2,3-dichlorophenyl)thio)imidazo[1,2-c]pyrimidin-5-yl)pyrrolidin-3-yl)methanamine] is higher in pIC50: 5.00 to 6.00 for the first, 6.00 to 7.00 for the second.

`NCC1(c2ccccc2)CCN(c2ncc(Sc3cccc(Cl)c3Cl)c3nccn23)CC1` [(1-(8-((2,3-dichlorophenyl)thio)imidazo[1,2-c]pyrimidin-5-yl)-4-phenylpiperidin-4-yl)methanamine] and `NCC1CCN(c2ncc(Sc3cccc(Cl)c3Cl)c3nccn23)CC1` [(1-(8-((2,3-dichlorophenyl)thio)imidazo[1,2-c]pyrimidin-5-yl)piperidin-4-yl)methanamine] fall in the same range of pIC50: 6.00 to 7.00 for the first, 6.00 to 7.00 for the second.

First: N[C@@H]1CCCC12CCN(c1ncc(-c3cccc(Cl)c3Cl)c3nccn13)CC2 [(R)-8-(8-(2,3-dichlorophenyl)imidazo[1,2-c]pyrimidin-5-yl)-8-azaspiro[4.5]decan-1-amine]
Second: Cn1ccnc1Sc1cnc(N2CCC3(CCC[C@H]3N)CC2)n2cnnc12 [(R)-8-(8-((1-methyl-1H-imidazol-2-yl)thio)-[1,2,4]triazolo[4,3-c]pyrimidin-5-yl)-8-azaspiro[4.5]decan-1-amine]
The pIC50 of the first is higher: 6.00 to 7.00 for the first, 5.00 to 6.00 for the second.
